From ChEMBL document CHEMBL1201862, “PubChem BioAssay data set” (2004)
Values belong to the compound of their own block, whether it stands above or below them. Active and inactive are the calls of the source.

What was measured:
[1] = general mammalian cell viability loss – activator set, cherry-pick, cytotoxicity control for miR-122 modulator project, dose response (AID 720690); format: functional, cell-based;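 further: HEK293T human cells scored for general mammalian cytotoxicity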
Prothrombin = Prothrombin (Homo sapiens, UniProt P00734); assay: Thrombin 1536 HTS Dose Response Confirmation. [Related pubchem assays: 1046 (Thrombin 1536 HTS; hits were confirmed in this assay)]; format: functional
Aminopeptidase N = target: T1, Aminopeptidase N (Plasmodium falciparum FcB1/Columbia, UniProt O96935); assay: malaria alanyl aminopeptidase activity blockers – biochemical, fluorogenic H-Leu-NHMec substrate, 1536-well (AID 1445); parameters: species or system Plasmodium falciparum 3D7, 3D7
T1 sequence (O96935 whole entry): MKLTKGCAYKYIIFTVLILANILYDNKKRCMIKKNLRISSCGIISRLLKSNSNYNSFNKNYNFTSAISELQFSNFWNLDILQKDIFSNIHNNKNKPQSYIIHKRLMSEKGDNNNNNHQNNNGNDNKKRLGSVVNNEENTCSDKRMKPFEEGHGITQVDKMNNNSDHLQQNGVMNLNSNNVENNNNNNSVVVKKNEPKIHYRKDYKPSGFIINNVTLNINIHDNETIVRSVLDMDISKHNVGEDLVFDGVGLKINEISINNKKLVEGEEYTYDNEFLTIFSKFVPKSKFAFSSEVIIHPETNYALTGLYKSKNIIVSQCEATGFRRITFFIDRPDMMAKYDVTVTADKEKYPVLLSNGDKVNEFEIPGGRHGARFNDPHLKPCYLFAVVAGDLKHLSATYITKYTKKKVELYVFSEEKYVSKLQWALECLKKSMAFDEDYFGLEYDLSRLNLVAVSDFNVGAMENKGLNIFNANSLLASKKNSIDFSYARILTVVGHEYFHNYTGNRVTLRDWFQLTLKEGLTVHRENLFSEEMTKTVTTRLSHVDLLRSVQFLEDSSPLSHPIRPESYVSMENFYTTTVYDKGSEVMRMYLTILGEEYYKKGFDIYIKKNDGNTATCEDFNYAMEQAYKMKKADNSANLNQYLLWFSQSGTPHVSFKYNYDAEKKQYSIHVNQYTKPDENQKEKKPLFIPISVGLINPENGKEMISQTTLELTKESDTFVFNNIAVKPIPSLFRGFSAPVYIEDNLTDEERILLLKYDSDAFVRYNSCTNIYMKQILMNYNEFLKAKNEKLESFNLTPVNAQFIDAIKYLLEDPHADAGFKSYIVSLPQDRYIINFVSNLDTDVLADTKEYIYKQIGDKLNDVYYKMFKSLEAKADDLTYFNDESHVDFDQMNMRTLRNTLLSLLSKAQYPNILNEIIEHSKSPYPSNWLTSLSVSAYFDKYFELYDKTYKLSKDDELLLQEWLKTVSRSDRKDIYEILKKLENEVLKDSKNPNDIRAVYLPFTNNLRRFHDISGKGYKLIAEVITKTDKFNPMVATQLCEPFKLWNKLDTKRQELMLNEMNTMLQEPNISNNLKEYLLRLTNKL

[2] = target: T2, E3 ubiquitin-protein ligase XIAP (Homo sapiens, UniProt P98170); assay: Counter Screen using XIAP-Bir3 for Chemical Antagonists of Bir1/2 domains of IAP-family anti-apoptotic proteins. [Related pubchem assays (depositor defined):AID1018, AID1449, AID1514, AID1638, AID1749, AID1750, AID488957, AID488963]
T2 sequence (P98170 whole entry): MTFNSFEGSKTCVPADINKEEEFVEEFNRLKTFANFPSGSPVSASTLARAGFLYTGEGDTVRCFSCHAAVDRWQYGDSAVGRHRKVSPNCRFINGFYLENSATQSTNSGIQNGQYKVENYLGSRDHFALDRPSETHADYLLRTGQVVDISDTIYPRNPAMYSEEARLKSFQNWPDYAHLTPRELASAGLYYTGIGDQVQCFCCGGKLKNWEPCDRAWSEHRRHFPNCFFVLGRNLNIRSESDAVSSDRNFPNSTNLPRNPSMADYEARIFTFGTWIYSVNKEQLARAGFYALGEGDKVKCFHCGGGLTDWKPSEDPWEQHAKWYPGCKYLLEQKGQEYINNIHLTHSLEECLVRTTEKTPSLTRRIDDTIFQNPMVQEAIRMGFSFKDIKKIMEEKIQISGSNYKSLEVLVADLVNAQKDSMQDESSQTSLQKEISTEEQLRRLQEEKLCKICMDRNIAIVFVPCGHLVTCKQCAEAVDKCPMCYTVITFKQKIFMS

[3] = target: T2, E3 ubiquitin-protein ligase XIAP; assay: small molecules displacing peptide from XIAP – biochemical, IAP family, fluorescence polarization (AID 1018); format: functional
Genome polyprotein = Genome polyprotein (dengue virus type 2, UniProt P29990); assay: flavivirus cap methylation enzyme inhibition – biochemical, confirmation dose response, primary screen (AID 588689); format: functional
[4] = target: Peroxisome proliferator-activated receptor gamma/Nuclear receptor coactivator 1 (Homo sapiens, UniProt P37231); assay: (§1) TR-FRET dose response biochemical High Throughput Screening assay for agonists of the steroid receptor coactivator 1 (SRC-1) recruitment by the peroxisome proliferator-activated receptor gamma (PPAR gamma): non-selective agonists. [Related pubchem assays (depositor defined):AID1300, AID1808, AID504735, AID631]; format: protein assay
Peroxisome proliferator-activated receptor gamma/Nuclear receptor coactivator 1, sequence (P37231 whole entry): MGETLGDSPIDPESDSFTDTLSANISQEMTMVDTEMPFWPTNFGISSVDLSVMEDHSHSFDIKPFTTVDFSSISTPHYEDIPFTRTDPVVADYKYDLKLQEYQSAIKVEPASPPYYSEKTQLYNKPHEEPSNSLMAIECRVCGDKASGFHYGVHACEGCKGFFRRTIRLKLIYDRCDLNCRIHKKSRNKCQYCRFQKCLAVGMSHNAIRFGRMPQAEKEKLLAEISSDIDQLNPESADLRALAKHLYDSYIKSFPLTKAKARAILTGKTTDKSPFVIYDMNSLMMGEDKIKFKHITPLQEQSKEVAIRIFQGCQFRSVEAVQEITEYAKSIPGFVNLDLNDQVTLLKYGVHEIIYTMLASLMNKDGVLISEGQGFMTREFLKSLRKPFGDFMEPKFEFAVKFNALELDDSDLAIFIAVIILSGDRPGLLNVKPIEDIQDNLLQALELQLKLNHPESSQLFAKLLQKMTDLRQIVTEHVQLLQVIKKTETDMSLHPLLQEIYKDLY
Peroxisome proliferator-activated receptor gamma/Nuclear receptor coactivator 1, sequence (Q15788 whole entry, further chain): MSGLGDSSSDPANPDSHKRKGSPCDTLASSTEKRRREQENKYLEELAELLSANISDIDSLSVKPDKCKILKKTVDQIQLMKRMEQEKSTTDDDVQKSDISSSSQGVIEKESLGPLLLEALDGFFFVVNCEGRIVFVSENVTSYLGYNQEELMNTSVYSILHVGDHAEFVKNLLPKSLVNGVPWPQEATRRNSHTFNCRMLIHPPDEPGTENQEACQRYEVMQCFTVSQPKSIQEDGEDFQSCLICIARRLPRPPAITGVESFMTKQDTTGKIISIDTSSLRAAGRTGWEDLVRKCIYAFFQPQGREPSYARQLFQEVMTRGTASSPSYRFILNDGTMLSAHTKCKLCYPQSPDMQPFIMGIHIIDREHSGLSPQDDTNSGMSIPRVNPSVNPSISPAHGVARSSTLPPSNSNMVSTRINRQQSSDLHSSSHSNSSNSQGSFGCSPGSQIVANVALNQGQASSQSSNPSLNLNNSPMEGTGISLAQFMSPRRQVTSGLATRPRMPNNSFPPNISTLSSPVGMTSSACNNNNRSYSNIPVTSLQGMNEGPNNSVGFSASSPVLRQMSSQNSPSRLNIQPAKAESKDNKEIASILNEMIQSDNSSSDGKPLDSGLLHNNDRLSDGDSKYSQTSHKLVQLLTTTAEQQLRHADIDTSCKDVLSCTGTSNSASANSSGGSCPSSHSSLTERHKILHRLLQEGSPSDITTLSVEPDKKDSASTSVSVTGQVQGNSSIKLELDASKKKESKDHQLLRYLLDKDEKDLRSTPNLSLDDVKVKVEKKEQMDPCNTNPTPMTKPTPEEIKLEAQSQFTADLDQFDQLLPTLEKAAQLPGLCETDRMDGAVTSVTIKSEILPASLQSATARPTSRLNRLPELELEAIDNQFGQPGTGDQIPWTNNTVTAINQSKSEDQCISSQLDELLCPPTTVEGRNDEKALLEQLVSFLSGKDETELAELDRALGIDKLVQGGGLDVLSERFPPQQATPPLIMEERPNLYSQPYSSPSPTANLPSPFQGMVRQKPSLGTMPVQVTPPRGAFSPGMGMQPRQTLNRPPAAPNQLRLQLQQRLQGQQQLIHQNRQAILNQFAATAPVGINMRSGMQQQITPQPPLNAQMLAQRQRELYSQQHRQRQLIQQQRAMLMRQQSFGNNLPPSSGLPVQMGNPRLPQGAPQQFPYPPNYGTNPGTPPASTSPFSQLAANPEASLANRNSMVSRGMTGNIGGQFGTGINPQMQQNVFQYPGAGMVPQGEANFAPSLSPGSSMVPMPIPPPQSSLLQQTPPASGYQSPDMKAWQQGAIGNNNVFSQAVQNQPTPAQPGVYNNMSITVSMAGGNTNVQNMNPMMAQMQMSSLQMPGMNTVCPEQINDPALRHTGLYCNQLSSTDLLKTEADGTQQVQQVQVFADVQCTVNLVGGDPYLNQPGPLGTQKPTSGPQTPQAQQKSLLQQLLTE

[5] = target: Peroxisome proliferator-activated receptor gamma/Nuclear receptor coactivator 3 (Homo sapiens, UniProt P37231); assay: as §1, with “3 (SRC-3)” for “1 (SRC-1)”, “assays: 1301 (Confirmation screen.), 1048 (Primary screen.)]” for “assays (depositor defined):AID1300, AID1808, AID504735, AID631]”; format: functional
Peroxisome proliferator-activated receptor gamma/Nuclear receptor coactivator 3, sequence (P37231 whole entry): as the sequence (P37231 whole entry) above
Peroxisome proliferator-activated receptor gamma/Nuclear receptor coactivator 3, sequence (Q9Y6Q9 whole entry, further chain): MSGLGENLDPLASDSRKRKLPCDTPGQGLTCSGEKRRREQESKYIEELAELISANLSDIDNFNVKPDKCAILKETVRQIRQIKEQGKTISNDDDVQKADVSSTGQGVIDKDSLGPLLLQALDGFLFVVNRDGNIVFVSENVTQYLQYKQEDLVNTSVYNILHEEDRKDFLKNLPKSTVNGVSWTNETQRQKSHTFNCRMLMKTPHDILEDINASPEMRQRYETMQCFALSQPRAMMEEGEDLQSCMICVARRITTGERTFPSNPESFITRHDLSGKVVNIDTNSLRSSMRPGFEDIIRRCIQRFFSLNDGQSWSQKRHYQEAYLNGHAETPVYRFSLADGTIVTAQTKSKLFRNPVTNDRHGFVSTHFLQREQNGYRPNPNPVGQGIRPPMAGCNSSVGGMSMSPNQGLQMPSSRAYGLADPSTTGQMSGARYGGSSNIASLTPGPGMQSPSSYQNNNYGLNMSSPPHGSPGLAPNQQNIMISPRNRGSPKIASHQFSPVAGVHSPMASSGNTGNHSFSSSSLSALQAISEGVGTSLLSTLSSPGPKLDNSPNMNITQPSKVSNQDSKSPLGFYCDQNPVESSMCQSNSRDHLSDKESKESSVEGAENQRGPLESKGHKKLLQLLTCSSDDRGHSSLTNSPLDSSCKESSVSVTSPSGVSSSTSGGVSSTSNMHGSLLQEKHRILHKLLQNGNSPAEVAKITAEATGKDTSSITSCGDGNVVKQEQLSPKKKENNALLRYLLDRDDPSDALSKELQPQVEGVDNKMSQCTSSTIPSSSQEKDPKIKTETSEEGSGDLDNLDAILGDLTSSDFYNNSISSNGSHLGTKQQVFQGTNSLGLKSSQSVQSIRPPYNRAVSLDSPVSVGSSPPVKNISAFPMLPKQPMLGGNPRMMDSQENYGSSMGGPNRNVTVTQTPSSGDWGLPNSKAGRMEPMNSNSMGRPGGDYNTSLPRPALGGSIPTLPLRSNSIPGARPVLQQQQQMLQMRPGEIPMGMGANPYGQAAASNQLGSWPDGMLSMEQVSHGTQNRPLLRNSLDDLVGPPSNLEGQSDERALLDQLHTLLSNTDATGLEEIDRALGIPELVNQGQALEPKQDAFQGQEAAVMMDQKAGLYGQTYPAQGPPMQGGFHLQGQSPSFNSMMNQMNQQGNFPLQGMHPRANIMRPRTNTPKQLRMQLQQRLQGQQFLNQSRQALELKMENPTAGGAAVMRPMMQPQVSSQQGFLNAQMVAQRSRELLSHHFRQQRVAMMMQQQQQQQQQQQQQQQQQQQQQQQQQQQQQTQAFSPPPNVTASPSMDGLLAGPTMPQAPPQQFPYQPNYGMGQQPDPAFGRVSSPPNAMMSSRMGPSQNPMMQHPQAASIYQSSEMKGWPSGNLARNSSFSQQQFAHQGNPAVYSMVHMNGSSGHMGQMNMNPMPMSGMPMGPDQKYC

[6] = target: Peroxisome proliferator-activated receptor gamma/Nuclear receptor coactivator 2 (Homo sapiens, UniProt P37231); assay: TR-FRET dose response biochemical High Throughput Screening assay for agonists of the steroid receptor coactivator 2 (SRC-2) recruitment by the peroxisome proliferator-activated receptor gamma (PPAR gamma): non-selective agonists. [Related pubchem assays: 1297, 1032 ]; format: functional
[7] = target: Mitogen-activated protein kinase 10 (Homo sapiens, UniProt P53779); assay: Dose response biochemical screening assay for inhibitors of c-Jun N-Terminal Kinase 3 (JNK3). [Related pubchem assays: 746 ]
Mitogen-activated protein kinase 10, sequence (P53779 whole entry): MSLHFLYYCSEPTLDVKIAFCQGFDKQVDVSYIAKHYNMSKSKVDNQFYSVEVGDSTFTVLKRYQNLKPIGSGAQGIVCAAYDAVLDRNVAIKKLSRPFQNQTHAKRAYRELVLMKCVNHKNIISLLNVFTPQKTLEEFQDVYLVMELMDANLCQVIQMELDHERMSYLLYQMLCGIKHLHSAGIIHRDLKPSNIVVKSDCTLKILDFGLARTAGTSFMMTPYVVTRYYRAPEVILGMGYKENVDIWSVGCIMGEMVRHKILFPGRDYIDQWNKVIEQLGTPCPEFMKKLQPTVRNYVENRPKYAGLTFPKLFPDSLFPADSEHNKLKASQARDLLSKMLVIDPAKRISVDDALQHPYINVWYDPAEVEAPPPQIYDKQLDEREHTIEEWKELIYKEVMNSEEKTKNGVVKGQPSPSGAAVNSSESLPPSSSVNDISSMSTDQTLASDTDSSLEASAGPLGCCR

P388/ADR = assay: cells; format: functional; conditions: Mus musculus
SN12K1 = assay: cells; format: functional; conditions: Homo sapiens
P388 = assay: cells; format: functional; conditions: Mus musculus
[8] = target: T3, Rac GTPase-activating protein 1 (Homo sapiens, UniProt Q9H0H5); assay: blockers of MgcRacGAP-driven Rac1 GTP hydrolysis – biochemical, ADP Hunter fluorescence, primary and confirmatory, confirmation (AID 624330); format: functional
T3 sequence (Q9H0H5 whole entry): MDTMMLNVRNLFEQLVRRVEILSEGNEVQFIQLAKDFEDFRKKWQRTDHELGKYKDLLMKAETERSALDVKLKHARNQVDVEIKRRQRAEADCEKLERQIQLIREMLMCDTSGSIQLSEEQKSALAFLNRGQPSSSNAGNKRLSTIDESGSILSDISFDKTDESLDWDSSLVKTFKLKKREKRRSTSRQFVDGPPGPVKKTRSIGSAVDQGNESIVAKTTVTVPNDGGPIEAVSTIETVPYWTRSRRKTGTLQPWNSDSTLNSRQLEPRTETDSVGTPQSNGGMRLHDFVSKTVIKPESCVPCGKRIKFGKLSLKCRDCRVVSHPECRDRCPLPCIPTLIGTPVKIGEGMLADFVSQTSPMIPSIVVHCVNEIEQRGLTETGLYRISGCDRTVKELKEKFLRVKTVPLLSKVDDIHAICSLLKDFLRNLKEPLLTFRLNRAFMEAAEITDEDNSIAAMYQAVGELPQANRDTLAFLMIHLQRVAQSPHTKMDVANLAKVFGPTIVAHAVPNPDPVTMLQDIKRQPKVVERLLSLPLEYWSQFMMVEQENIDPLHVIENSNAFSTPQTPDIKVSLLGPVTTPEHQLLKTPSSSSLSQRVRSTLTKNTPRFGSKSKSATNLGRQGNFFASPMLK

Structure (SMILES): C[C@@H]1CN([C@@H](C)CO)C(=O)c2cccc(NC(=O)c3ccc(-c4nccs4)cc3)c2O[C@H]1CN(C)Cc1ccc2c(c1)OCO2
AC50 [1]: 25.6 µM (active)

IC50 (Prothrombin): > 50 µM (not active)
Structure (SMILES): Cc1ccc(C)c(S(=O)(=O)NCCCN2CCOCC2)c1

IC50 (Aminopeptidase N): 58.1 µM (active)
Structure (SMILES): O=C(NNC(=O)c1ccc(O)cc1O)c1ccc(Cl)cc1

IC50 [2]: > 100 µM (inactive) | IC50 [3]: > 100 µM (not active)
Structure (SMILES): c1ccc(N=Nc2cn[nH]c2-c2ccco2)cc1

IC50 (Genome polyprotein): 50.5 µM (active)
Structure (SMILES): O=C(O)c1cccc2c1C(=O)c1ccc(-c3ccc(F)cc3OCc3ccccc3)cc1S2(=O)=O

IC50 [2]: > 100 µM (inactive) | IC50 [3]: > 100 µM (not active)
Structure (SMILES): O=C(C1CC(c2ccc(F)cc2)=NO1)N1CCc2ccccc2C1 (stereo not drawn)

IC50 [2]: > 100 µM (inactive) | IC50 [3]: > 100 µM (not active)
Structure (SMILES): CCN1CCN(CCCNC(=O)Cn2cc3c(n2)CCCC3)CC1

EC50 [4]: 9.02 µM (active) | EC50 [5]: > 79.4 µM (not active) | EC50 [6]: 5.6 µM (active) | IC50 [7]: > 93.1 µM (not active)
Structure (SMILES): c1ccc2[nH]c(CSc3ncnc4c3oc3ccccc34)nc2c1

Structure (SMILES): COc1ccccc1Cc1nc(-c2ccccc2)nn(C2OC(COC(C)=O)C(OC(C)=O)C(OC(C)=O)C2OC(C)=O)c1=S (stereo not drawn)
GI50 (P388/ADR): 19.6 µM (inactive) | GI50 (SN12K1): 9.95 µM (inactive) | GI50 (P388): 21.9 µM (inactive)

EC50 [4]: > 79.4 µM (inactive) | EC50 [5]: > 79.4 µM (not active) | EC50 [6]: > 26.5 µM (not active) | IC50 [7]: 30.5 µM (not active) | IC50 [8]: 56.6 µM (active)
Structure (SMILES): CCOC(=O)c1c(C)nsc1S

IC50 [2]: > 100 µM (inactive) | IC50 [3]: > 100 µM (not active)
Structure (SMILES): CCCc1nc(SCC(=O)Nc2ccc(S(=O)(=O)N(C)C)cc2)c2ccccc2n1

EC50 [4]: > 79.4 µM (inactive) | EC50 [5]: > 79.4 µM (not active) | EC50 [6]: > 26.5 µM (not active)
Structure (SMILES): CC(=O)CSc1ncnc2c1oc1ccccc12

Structure (SMILES): O=C(NC(Cc1ccc(I)cc1)C(=O)O)c1ccc(I)cc1 (stereo not drawn)
GI50 (P388/ADR): 38 µM (inactive) | GI50 (SN12K1): > 100 µM (inactive) | GI50 (P388): 41.4 µM (inactive)

IC50 (Aminopeptidase N): 51.1 µM (active) | IC50 [8]: 58.7 µM (active)
Structure (SMILES): C=CCn1c(=O)/c(=C/c2ccc(O)cc2)s/c1=C(/C#N)c1nnc2n1CCCCC2

IC50 (Aminopeptidase N): 78.2 µM (active)
Structure (SMILES): COc1cccc(C2CC(c3c(O)nc4ccc(Cl)cc4c3-c3ccccc3)=NN2S(C)(=O)=O)c1OC (stereo not drawn)
